{"source": "patent US7094758B2", "about": "“Apoptotic compounds” (Board of Regents, The University of Texas System, priority 2000, dated 2006)", "molecules": {"B1": {"name": "Smac: Second mitochondria-derived activator of caspases (DIABLO); mature form contains 184 amino acids (protein, UniProt Q9NR28 22-239, looked up)", "Diablo IAP-binding …": "LCVPVVANFKKRCFSELIRPWHKTVTIGFGVTLCAVPIAQKSEPHSLSSEALMRRAVSLVTDSTSTFLSQTTYALIEAITEYTKAVYTLTSLYRQYTSLLGKMNSEEEDEVWQVIIGARAEMTSKHQEYLKLETTWMTAVGLSEMAAEAAYQTGADQASITARNHIQLVKLQVEEVHQLSRKAETKLAEAQIEELRQKTQEEGEERAESEQEAYLRED"}}, "key": {"Wap-ras tumors": {"test_system": "Wap-ras tumors", "assay": "In vivo therapy in the WAP-RAS transgenic model", "conditions": "Wap-ras transgenic mice with well developed tumors; peptoid 20 mpk po, paclitaxel 5 mpk ip", "protocol": "Peptoid and Paclitaxel combination efficacy is also evaluated in the Wap-ras transgenic model.\nPeptoid (20 mpk/dosing po) was dissolved in 20% hydroxyl-propyl-betacyclodexatrin (Vehicle I). 0.2 ml of peptoid solution is the oral dosing volume. Paclitaxel (5 mpk/dosing ip) was dissolved in a diluted ethanol/cremophor EL solution (vehicle II) and the i.p. dosing volume for paclitaxel was 0.1 ml.\nThe mice are weighed, randomized, and ear-marked on Day 0. Peptoid treatment and Vehicle I treatment began on Day 1 and continued every 12 hours until Day 21. Paclitaxel and Vehicle II treatments are started on Day 4 and continued daily on Day 5, 6, and 7."}, "procaspase-3": {"test_system": "procaspase-3", "assay": "Hela cell extracts: radiolabeled procaspase-3 activation assay", "type": "biochemical", "conditions": "S-100 extracts of HeLa cells, 35S-labeled caspase-3; AV peptoids (50 nM), Smac peptides 30–1000 mM; 30° C., 1 hr", "method": "[…] S-100 extracts of HeLa cells were incubated alone (Control), or with AV peptoids (50 nM) nM, or with […] of N-terminal Smac peptides in different lengths. The reactions were carried out with the addition of 1 mM DATP, 1 mM additional MgCl2, 0.2 mg/ml horse heart cytochrome c, and […] of in vitro translated, ^35S-labeled caspase-3 in a final volume of […]. The reaction mixtures were incubated at 30° C. for 1 hr followed by electrophoresis on a 15% PAGE gel. The gel was subsequently transferred onto a nitrocellulose filter and exposed to a phosphoimaging cassette."}, "[1]": {"biological_target": "T1, second BIR (baculoviral IAP repeat) motif of XIAP (Homo sapiens, UniProt P98170)", "T1 construct": "recombinant IAP fragment (second BIR (baculoviral IAP repeat) motif of XIAP)", "T1 sequence (P98170 124-240 limits assumed)": "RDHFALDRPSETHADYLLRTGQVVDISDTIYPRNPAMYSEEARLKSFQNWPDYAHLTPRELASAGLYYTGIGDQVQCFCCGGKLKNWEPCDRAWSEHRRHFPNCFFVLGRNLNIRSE", "assay": "In vitro IAP (BIR) binding/interaction assay, GST-mediated pull-down", "method": "Interaction between AV peptoids and IAPs was examined by GST-mediated pull-down assays. Approximately 0.4 mg of a recombinant IAP fragment (second BIR (baculoviral IAP repeat) motif of XIAP) was bound to […] of glutathione resin as a GST-fusion protein and incubated with 0.5 mg of radiolabeled AV peptoids at room temperature. After extensive washing with an assay buffer containing 25 mM Tris, pH 8.0, 150 mM NaCl, and 2 mM dithiothreitol (DTT), the complex was eluted with 5 mM reduced glutathione and visualized by SDS-PAGE with Coomassie staining.\nSmac stimulates activation of procaspase-3 by relieving the IAP inhibition^20, 21. All members of the IAP family contain at least one BIR (baculoviral IAP repeat) motif and many contain three^9."}}, "data": [{"molecule": "CC(=O)O[C@H]1C(=O)[C@@]2(C)[C@H]([C@H](OC(=O)c3ccccc3)[C@]3(O)C[C@H](OC(=O)[C@H](O)[C@@H](NC(=O)c4ccccc4)c4ccccc4)C(C)=C1C3(C)C)[C@]1(OC(C)=O)CO[C@@H]1C[C@@H]2O", "note": "[Paclitaxel]", "values": [{"measurement": "tumor response to treatment, single agent", "setting": "Wap-ras tumors", "value": "do not respond"}]}, {"molecule": "NH2-KQAIPVA-COOH (H-KQAIPVA-OH) [Smac-7R]", "values": [{"measurement": "activation of procaspase-3", "setting": "procaspase-3", "value": "did not"}, {"measurement": "IAP Binding", "setting": "[1]; Table 4, GST pull-down with radiolabeled AV peptoid, grades 0, ++, +++, key not given", "value": 0}]}, {"molecule": "B1", "values": [{"measurement": "specific binding/interaction with IAP (BIR domain of XIAP)", "setting": "[1]; second or third BIR domain of XIAP", "value": "specifically interact"}]}]}
